Like-named read-outs stand apart in the source and are kept apart here.
What was measured:
[1] = Brain Concentration in Mice; format: in vivo; settings: mouse, mice (C57BL/6), read-out: Unbound-Brain Concentration at 2 h at 1 mg/kg
Description: Brain Concentration in Mice
Test compounds were orally administered to mice (C57BL/6) at 1 or 3 mg/kg. Brain samples were collected 2 h after the administration and homogenized with 3-fold volumes of distilled water.
LC-MS/MS analysis was conducted as specified below. Standard calibration samples were prepared using the same matrix and analyzed in the same manner.
Standard calibration samples were analyzed to calculate a regression equation from the peak area ratio (test compound/internal standard). The peak area ratio was determined for a measurement sample and assigned to the regression equation to calculate an assay value.

[2] = Metabolic Stability in Human Liver Microsomes; format: in vitro ADME
Description: Metabolic Stability in Human Liver Microsomes
Human liver microsome (BD Gentest Corporation, Cat No. #452161) incubations were conducted in duplicate in 96-well plates. Each well contains 40 μL of 0.1 M potassium phosphate buffer (pH 7.4), 4.125 mM MgCl2, 0.625 mg/mL liver microsomes, and test compound (1.25 μM). After 5-min preincubation at 37° C., 10 uL of 5.0 mM NADPH in 0.1M potassium phosphate buffer was added to initiate the enzymatic reaction. The final component concentrations are 0.1M potassium phosphate buffer (pH 7.4), 1.0 mM NADPH, 3.3 mM MgCl2, 0.5 mg/mL liver microsomes, and test compound (1.0 μM). Reactions were terminated at 0 and 60 min by adding 200 μL of ice-cold acetonitrile containing internal standard.
LC-MS/MS analysis was conducted as specified below.
The remaining at 60 min (%) of test compound was calculated from the peak area ratio (test compound/internal standard) of samples collected 0 and 60 min after the start of the reaction according to the formula described below. Remaining at 60 min (%)=peak area ratio of sample collected at 60 min/peak area ratio of sample collected at 0 min×100 [Results]

[3] = biological target: KDM5A (Homo sapiens (Human), UniProt P29375); assay: Biochemical KDM5A Inhibition Assay (HTRF); settings: KDM5A protein, biotin-labelled H3K4-Me3 substrate
Sequence of KDM5A (P29375 whole entry): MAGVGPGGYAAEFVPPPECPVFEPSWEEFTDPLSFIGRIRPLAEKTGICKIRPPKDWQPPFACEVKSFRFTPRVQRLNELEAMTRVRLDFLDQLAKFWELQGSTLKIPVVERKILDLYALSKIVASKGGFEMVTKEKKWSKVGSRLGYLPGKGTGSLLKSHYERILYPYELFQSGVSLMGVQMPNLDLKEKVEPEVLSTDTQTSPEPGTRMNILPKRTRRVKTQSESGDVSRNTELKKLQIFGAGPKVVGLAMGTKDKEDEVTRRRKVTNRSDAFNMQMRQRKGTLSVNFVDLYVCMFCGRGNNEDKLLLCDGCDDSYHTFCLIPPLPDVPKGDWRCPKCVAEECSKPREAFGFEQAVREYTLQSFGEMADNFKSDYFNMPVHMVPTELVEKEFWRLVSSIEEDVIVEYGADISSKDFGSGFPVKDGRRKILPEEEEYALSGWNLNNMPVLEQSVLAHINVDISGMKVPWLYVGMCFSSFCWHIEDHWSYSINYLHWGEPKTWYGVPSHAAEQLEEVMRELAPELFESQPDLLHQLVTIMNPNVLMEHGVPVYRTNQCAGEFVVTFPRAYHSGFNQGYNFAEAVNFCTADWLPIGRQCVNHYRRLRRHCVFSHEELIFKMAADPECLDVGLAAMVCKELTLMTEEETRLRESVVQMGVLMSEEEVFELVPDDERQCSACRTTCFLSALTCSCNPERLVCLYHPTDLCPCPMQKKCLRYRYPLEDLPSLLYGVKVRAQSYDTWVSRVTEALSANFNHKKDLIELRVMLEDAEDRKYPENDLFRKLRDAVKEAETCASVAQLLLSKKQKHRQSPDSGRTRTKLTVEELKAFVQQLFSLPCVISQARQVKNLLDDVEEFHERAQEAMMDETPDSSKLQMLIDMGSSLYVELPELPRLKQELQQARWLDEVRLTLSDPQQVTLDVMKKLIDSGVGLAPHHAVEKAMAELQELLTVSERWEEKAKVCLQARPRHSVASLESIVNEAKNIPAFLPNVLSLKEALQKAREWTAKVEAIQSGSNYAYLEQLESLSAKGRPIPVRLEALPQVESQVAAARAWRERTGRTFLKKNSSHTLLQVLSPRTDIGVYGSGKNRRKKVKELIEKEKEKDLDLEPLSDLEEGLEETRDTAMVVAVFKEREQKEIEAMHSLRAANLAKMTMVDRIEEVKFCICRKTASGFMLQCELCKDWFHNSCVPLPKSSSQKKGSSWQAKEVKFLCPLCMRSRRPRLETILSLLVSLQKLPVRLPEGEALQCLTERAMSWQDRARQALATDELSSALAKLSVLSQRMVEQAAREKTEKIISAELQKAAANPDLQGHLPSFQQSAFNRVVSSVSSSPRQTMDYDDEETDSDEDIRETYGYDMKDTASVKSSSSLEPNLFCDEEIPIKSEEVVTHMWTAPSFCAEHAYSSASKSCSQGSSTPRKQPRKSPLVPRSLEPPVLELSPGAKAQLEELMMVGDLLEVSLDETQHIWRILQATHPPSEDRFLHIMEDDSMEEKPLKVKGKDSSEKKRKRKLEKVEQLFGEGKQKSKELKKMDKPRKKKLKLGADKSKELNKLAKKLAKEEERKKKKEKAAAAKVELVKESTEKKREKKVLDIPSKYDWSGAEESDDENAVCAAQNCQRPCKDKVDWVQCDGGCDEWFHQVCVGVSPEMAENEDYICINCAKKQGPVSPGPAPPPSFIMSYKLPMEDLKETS
Description: Biochemical KDM5A Inhibition Assay
Using 384-well white Greiner784075 (Greiner), representative compounds were characterized for their inhibition of KDM5A using HTRF® technology (Cisbio Bioassays). Briefly, the test compounds, reference compounds, and DMSO control (typical compound concentration range 1 μM-[…], final assay concentration (FAC*) of DMSO 0.5%) were added to 384-well plate by the Echo® acoustic dispensing platform (Labcyte). Five (5) 1l of KDM5A protein (produced by the method described in Nat Chem Biol 12, 531-538 (2016)). (5-20 nM FAC*) in assay buffer (50 mM MES, 50 mM NaCl, 1 mM TCEP, 0.01% v/v Tween 20, 0.03% BSA, pH 6.5) was added to wells and plates were incubated for 10-20 minutes at 25 degrees celsius. Then, 5 μl of alpha-ketoglutaric acid (100 μM FAC*), biotin-labelled H3K4-Me3 substrate (Anaspec Cat #AS-64357-1; 200 nM FAC*), Fe(II)SO4 (100 μM FAC*) and ascorbic acid (2 mM FAC*) in assay buffer was added to wells and plates were incubated for 20 minutes at room temperature. The reaction was stopped with the addition of 10 μl of anti-H3K4-Me2-Eu(K) (Cisbio Bioassays Cat #61KA2KAH; 0.75 nM FAC**)+Streptavidin XL665 (Cisbio Bioassays Cat #610SAXLB; 25 nM FAC**) in HTRF detection buffer (Cisbio Bioassays Cat #62SDBRDF). The mixture was incubated for 30 minutes at room temperature before 340 nm excitation and measurement of dual emission at 620 nm and 665 run. *FAC: final assay concentration calculated based on 10 μl of the assay buffer**FAC: final assay concentration calculated based on 20 μl of the detection buffer
The raw data (a 665 nm and a 620 nm reading from each well) for individual assay plates were analyzed. The ratio of emissions was calculated using the following calculation: Ratio=(665 nm emission/620 nm emission)×10000. […] Compound IC50 values were calculated from graphs of % inhibition plotted against compound concentration, using a four parameter curve fit. [Results]

[4] = po, orally administered, 1 mg/kg, brain 2 h after administration
[5] = 0.5 mg/mL liver microsomes, 1.0 μM test compound, 1.0 mM NADPH, 37° C., 60 min
[6] = human, microsomes, 1 h, 1 μM, pH 7.4

Row | SMILES | concentration at 2 h [1, 4] [ng/g] | Metabolic stability in human liver microsomes (% remaining at 60 min) [2, 5] [%] | IC50 [3] [nM] | Metabolic stability in human liver microsomes (% remaining at 60 min) [2, 6] [%] | concentration at 2 h ([1]; brain, oral, 2 h, values with * obtained by proportional calculation from the 3 mg/kg data) [ng/g]
1 | O=C(c1cn(C2CC2)cn1)N1C[C@@H]2[C@H](C1)[C@H]2C1=NOC2(CC2)C1 [Example 51, (1-cyclopropyl-1H-imidazol-4-yl)[(1R,5S,6r)-6-(4-oxa-5-azaspiro[2.4]hept-5-en-6-yl)-3-azabicyclo[3.1.0]hex-3-yl]methanone] | 55.3 | 95 | 20 | – | –
2 | CC(C)n1cnc(C(=O)N2C[C@@H]3[C@H](C2)[C@@]3(C)C2=NOC(C)(C)C2)c1 [Example 81, [(1R,5S,6r)-6-(5,5-dimethyl-4,5-dihydro-1,2-oxazol-3-yl)-6-methyl-3-azabicyclo[3.1.0]hex-3-yl](1-isopropyl-1H-imidazol-4-yl)methanone] | 21.9 | – | 60 | 100 | –
3 | CC1(C)CC([C@@]2(C)[C@@H]3CN(C(=O)c4cn(C5CC5)cn4)C[C@@H]32)=NO1 [Example 82, (1-cyclopropyl-1H-imidazol-4-yl)[(1R,5S,6r)-6-(5,5-dimethyl-4,5-dihydro-1,2-oxazol-3-yl)-6-methyl-3-azabicyclo[3.1.0]hex-3-yl]methanone] | 57.4 | – | 30 | 104 | –
4 | C[C@]1(C2=NOC3(CC3)C2)[C@@H]2CN(C(=O)c3cn(C4CC4)cn3)C[C@@H]21 [Example 85, (1-cyclopropyl-1H-imidazol-4-yl)[(1R,5S,6r)-6-methyl-6-(4-oxa-5-azaspiro[2.4]hept-5-en-6-yl)-3-azabicyclo[3.1.0]hex-3-yl]methanone] | 76.7 | 98 | 20 | – | –
5 | CC(C)c1cc(C(=O)N2C[C@@H]3[C@H](C2)[C@H]3C2=NOC(C)(C)C2)n[nH]1 [Example 88, [(1R,5S,6r)-6-(5,5-dimethyl-4,5-dihydro-1,2-oxazol-3-yl)-3-azabicyclo[3.1.0]hex-3-yl](5-isopropyl-1H-pyrazol-3-yl)methanone] | – | – | 70 | 95 | 39.5

From patent US11691968B2, “Compound having KDM5 inhibitory activity and pharmaceutical use thereof” (ONO PHARMACEUTICAL CO., LTD., priority 2020, dated 2023)
